From patent publication US6989396B2, “Tropane alkaloid multidrug resistance inhibitors from Erythroxylum pervillei and use of the same” (The Board of Trustees of the University of Illinois, priority 2001, dated 2006)
“And” between values parts separate entries of the source, which are not always exact repeats. Identical values can stand only once. Like-named read-outs stand apart in the source and are kept apart here. One block for each molecule: values may come before it.

Experiments:
[1] = system: SKVLB (ovarian adenocarcinoma, multidrug resistance); experiment: Multidrug resistance inhibition in SKVLB (pGp +ve); assay type: cell-based, human; details: Homo sapiens
[2] = system: SKOV3 (ovarian adenocarcinoma); experiment: Cytotoxicity in ovarian adenocarcinoma SKOV3 (pGp -ve); assay type: cell-based; details: Homo sapiens, SK-OV-3; read-out: IC50 SKOV3 (pGp − ve)
Experimental: Cytotoxicity assay. Compounds 1–9 were evaluated for cytotoxic activity against a panel of human cancer cell lines, including KB-V1 in the presence and absence of VLB, according to an established protocol (68).

[3] = system: CEM/VLB100 cells; experiment: MDR reversal in drug-resistant human leukemia CEM/VLB100 cells; assay type: cell-based; details: Homo sapiens
Experimental: (§1) Cytotoxic potential. The cytotoxic potential of test substances with KB-3, KB-V1 and KB-8-5 cells was determined as described previously (24). Briefly, various concentrations of test compounds (dissolved in 10 μl of 10% DMSO) were transferred to 96-well plates, and 190 μl aliquots of cell suspensions (5×10^4 cells/ml) were added to each well. The plates then were incubated for 72 hours at 37° C. (100% humidity with a 5% CO2 atmosphere in air), and 100 μl of cold 20% aqueous trichloroacetic acid were added to the growth medium in each well to fix the cells. The cultures were incubated at 4° C. for 30 minutes, washed, air-dried, stained with sulforhodamine B solution, and washed with 1% acetic acid. […] In each case, a zero-day control was performed by adding an equivalent number of cells to several wells and incubating at 37° C. for 30 minutes, and processing as described above. Optical density values obtained with the zero-day control were subtracted, and cell survival, relative to control (solvent-treated) cultures, was calculated. The cytotoxic potential of the compounds with CEM and CEM/VLB100 cells was determined as described by Beck et al. (30). Cells were grown in 24-well plates at a density of 5–6×10^5 cells/ml. At 48 hours, the cell number was determined using a Coulter Counter, with a channelizer to distinguish cells from debris.

[4] = system: KB-V1 cells; experiment: In vivo hollow fiber test: KB-V1; set-up: species or system NCr nu/nu mice
Experimental: (§2) In vivo hollow fiber test. […] Confluent monolayers of KB-3, KB-V1 or KB-8-5 cells were harvested, collected by centrifugation and resuspended in conditioned medium at a concentration of 7.5×10^5 cells/ml.
(§3) Test compounds were administrated once daily by intraperitoneal injection from day 3–6 after implantation. Body weights were measure daily.
(§4) After incubating at 37° C. for 4 hours, the culture medium was aspirated and the samples were washed twice with normal saline containing 2.5% protamine sulfate solution by overnight incubation at 4° C. […] The formazan was extracted from each sample with DMSO (250 μl/well) for 4 hours at room temperature on a rotation platform.

[5] = system: KB-8-5 cells; experiment: In vivo hollow fiber test: KB-8-5; set-up: species or system NCr nu/nu mice
Experimental: as §2, §3, §4

[6] = system: KB-V1 cells; experiment: Reversal of MDR, cell survival assay: KB-V1 with or without vinblastine; assay type: cell-based, human
Experimental: (§5) One part of a natural product drug discovery program involves monitoring the potential of plant extracts to reverse multiple drug resistance. […] To investigate the potential of plant extracts or compounds to reverse multidrug-resistance, KB-V1 cells are treated with different concentrations of plant extracts or compounds in the presence (1 μg/ml) or absence of vinblastine.
as §1

[7] = system: KB-3 cells; experiment: Growth inhibitory potential (sulforhodamine B cell survival assay): KB-3; assay type: cell-based; details: Homo sapiens, KB3, 72 h, read-out: IC50 KB-3
Experimental: as §5
Cytotoxic potential. The cytotoxic potential of test substances with KB-3, KB-V1 and KB-8-5 cells was determined as described previously (24). Briefly, various concentrations of test compounds (dissolved in 10 μl of 10% DMSO) were transferred to 96-well plates, and 190 μl aliquots of cell suspensions (5×10^4 cells/ml) were added to each well. The plates then were incubated for 72 hours at 37° C. (100% humidity with a 5% CO2 atmosphere in air), and 100 μl of cold 20% aqueous trichloroacetic acid were added to the growth medium in each well to fix the cells. The cultures were incubated at 4° C. for 30 minutes, washed, air-dried, stained with sulforhodamine B solution, and washed with 1% acetic acid. Finally, 200 μl of 10 mM Tris base were added to each well and the optical densities were determined at 515 nm utilizing an ELISA plate reader. In each case, a zero-day control was performed by adding an equivalent number of cells to several wells and incubating at 37° C. for 30 minutes, and processing as described above. Optical density values obtained with the zero-day control were subtracted, and cell survival, relative to control (solvent-treated) cultures, was calculated. The cytotoxic potential of the compounds with CEM and CEM/VLB100 cells was determined as described by Beck et al. (30). Cells were grown in 24-well plates at a density of 5–6×10^5 cells/ml. At 48 hours, the cell number was determined using a Coulter Counter, with a channelizer to distinguish cells from debris.

[8] = system: KB-8-5 cells; experiment: Reversal of MDR, cell survival assay: KB-8-5 with or without colchicine; assay type: cell-based, human; details: Homo sapiens
Experimental: as §1

[9] = system: HCT-15, colon; experiment: In vitro multidrug resistance modulation (DINIB synergy): HCT-15; assay type: cell-based, human; details: increase of cytotoxicity of DINIB 1 × 10^−4 M; modulator μg/mL: verapamil 12.5, cyclosporin A 6.3, pervilleine B 12.5, C 3.1, D 50.0, F 25.0; <25 insignificant, >100 strong synergy
Text: (§6) Alkaloids 5–7 and 9 were further evaluated for their efficacy as potential modulators of P-glycoprotein. This assay assessed the ability of these test compounds to increase the cytotoxicity of an agent of the MDR phenotype {4,9-dihydro-3-iso-butyl-2-methyl-1-(p-nitrophenacyl)-4,9-dioxo-1H-naphth[2-3-d]imidazolium bromide (DINIB)}, compared with an agent not of the MDR phenotype (5-flurouracil), used as a negative control (73, 74).
(§7) In vitro multidrug resistance assay.

[10] = system: LOX IMVI, melanoma; experiment: In vitro multidrug resistance modulation (DINIB synergy): LOX IMVI; assay type: cell-based, human; details: increase of cytotoxicity of DINIB 1 × 10^−4 M; modulator μg/mL: verapamil 12.5, cyclosporin A 6.3, pervilleine B 12.5, C 3.1, D 50.0, F 25.0; <25 insignificant, >100 strong synergy
Text: as §6, §7

[11] = system: UO-31, renal; experiment: In vitro multidrug resistance modulation (DINIB synergy): UO-31; assay type: cell-based, human; details: increase of cytotoxicity of DINIB 1 × 10^−4 M; modulator μg/mL: verapamil 12.5, cyclosporin A 6.3, pervilleine B 12.5, C 3.1, D 50.0, F 25.0; <25 insignificant, >100 strong synergy
Text: as §6, §7

[12] = system: CAKI-1, renal; experiment: In vitro multidrug resistance modulation (DINIB synergy): CAKI-1; assay type: cell-based, human; details: increase of cytotoxicity of DINIB 1 × 10^−4 M; modulator μg/mL: verapamil 12.5, cyclosporin A 6.3, pervilleine B 12.5, C 3.1, D 50.0, F 25.0; <25 insignificant, >100 strong synergy
Text: as §6, §7

[13] = no adriamycin added, read-out: IC50 BSKVLB (pGp + ve)
[14] = summation of single-agent inhibitions
[15] = vinblastine 100 μg/kg + reversing agent 0.136 mmol/kg

IC50 ([1]; Addition of 1 μm adriamycin, read-out: IC50 SKVLB (pGp + ve), addition of adriamycin): 0.02 µM
IC50 [1, 13]: 14 µM
Molecule: COc1cc2c(cc1OC)CN(CCc1ccc(NC(=O)c3cccc4c(=O)c5cccc(OC)c5[nH]c34)cc1)CC2 [GB120918, N-{4-[2-(1,2,3,4-tetrahydro-6,7-dimethoxy-2-isoquinolinyl)-ethyl]-phenyl}-9,10-dihydro-5-methoxy-9-oxo-4-acridine carboxamide, reference compound]
IC50 [2]: 8.1 µM

IC50 [1, 13]: 2.2 µM
Molecule: COc1cccc2c1C(=O)c1c(O)c3c(c(O)c1C2=O)C[C@@](O)(C(=O)CO)C[C@@H]3O[C@H]1C[C@H](N)[C@H](O)[C@H](C)O1 [adriamycin, reference compound]
IC50 [2]: 0.008 µM

Molecule: COc1cccc2c1C(=O)c1c(O)c3c(c(O)c1C2=O)C[C@@](O)(C(C)=O)C[C@@H]3O[C@H]1C[C@H](N)[C@H](O)[C@H](C)O1 [daunorubicin, reference compound]
IC50 ([3]; CEM/VLB100 cells, read-out: IC50 value of the cytotoxic drug in the absence of modulator): 1 µM

Molecule: COc1ccc(CCN(C)CCCC(C#N)(c2ccc(OC)c(OC)c2)C(C)C)cc1OC (centres unmarked) [verapamil, reference compound]
inhibition of cell growth when used in combination with vinblastine ([4]; KB-V1 or KB-8-5 cells in hollow fibers implanted into NCr nu/nu mice): less effective
Calculated inhibition (vinblastine + reversing agent as single agents), KB-V1, i.p. site [4, 14]: 7.4% and 6.2%
Calculated inhibition (vinblastine + reversing agent as single agents), KB-V1, s.c. site [4, 14]: 3.8% and 10.8%
Observed inhibition from coadministration with vinblastine, KB-V1, s.c. site ([4]; vinblastine 250 μg/kg + reversing agent 0.136 mmol/kg): 7.8 (P = 0.73) % and 13.6 (P = 0.098) %
Observed inhibition from coadministration with vinblastine, KB-V1, i.p. site ([4]; vinblastine 250 μg/kg + reversing agent 0.136 mmol/kg, i.p. injection once daily days 3–6): 60.3 (P < 0.0001) % and 56.6 (P < 0.0001) %
Calculated inhibition (vinblastine + reversing agent as single agents), KB-8-5, i.p. site [5, 14]: 5.9%
Calculated inhibition (vinblastine + reversing agent as single agents), KB-8-5, s.c. site [5, 14]: 3.7%
Observed inhibition from coadministration with vinblastine, KB-8-5, i.p. site [5, 15]: 52 (P < 0.0001) %
Observed inhibition from coadministration with vinblastine, KB-8-5, s.c. site [5, 15]: 11.7 (P = 0.06) %
Growth inhibition, single agent, KB-8-5, s.c. site ([5]; vinblastine 100 μg/kg, reversing agents 0.136 mmol/kg): 1.4%
Growth inhibition, single agent, KB-8-5, i.p. site ([5]; vinblastine 100 μg/kg, reversing agents 0.136 mmol/kg, i.p. injection once daily days 3–6): 4.7%
IC50 ([6]; Homo sapiens, KB-V1, 72 h, read-out: IC50 KB-V1 (+), presence of vinblastine (1 μg/ml), 72 hours): 0.79 µM
IC50 ([6]; Homo sapiens, KB-V1, 72 h, read-out: IC50 KB-V1 (−), absence of vinblastine, 72 hours): > 44 µM
IC50 ([6]; read-out: IC50 KB-V1 (−), absence of vinblastine, 72 hours): 44 µM
IC50 ([3]; CEM/VLB100, 48 h, read-out: IC50 Modulator only): > 15 µM
IC50 ([3]; CEM/VLB100, read-out: IC50 (Modulator + Daunorubicin)): 0.5 µM
IC50 ([3]; CEM/VLB100, read-out: IC50 (Modulator + Vinblastine)): 0.025 µM
IC50 [7]: 37 µM
IC50 [8]: > 44 µM

Molecule: cyclosporin A [reference compound]
synergy value at a 95% confidence level, HCT-15 [9]: 719.1
synergy value at a 95% confidence level, LOX IMVI [10]: 72.9
synergy value at a 95% confidence level, UO-31 [11]: 642.1
synergy value at a 95% confidence level, CAKI-1 [12]: 273.3
